Measurements published in the CheMixHub viscosity set.
“And” between values parts separate entries of the source, which are not always exact repeats. Equal entries are not always repeated.

Assay: xn = mol fraction of the nth substance listed

O=S1(=O)CCCC1 + CCC(C)O
viscosity [mPa·s], 101 kPa
Conditions | x1 = 0.0998 | x1 = 0.1988 | x1 = 0.2898 | x1 = 0.3908 | x1 = 0.4973 | x1 = 0.5943 | x1 = 0.7033 | x1 = 0.78 | x1 = 0.9045
303.15 K | 2.151 | – | 2.299 | 2.55 | 2.933 | 3.428 | 4.266 | 5.138 | 7.383
308.15 K | 1.858 | 1.884 | 2.015 | 2.246 | 2.597 | 3.049 | 3.799 | 4.576 | 6.529
313.15 K | 1.615 | 1.655 | – | 1.993 | 2.316 | 2.728 | 3.407 | 4.097 | 5.806

Cc1ccc(O)cc1 + CCCC(=O)O
viscosity [mPa·s], 101 kPa
Conditions | x2 = 0.1119 | x2 = 0.2208 | x2 = 0.327 | x2 = 0.4305 | x2 = 0.5313 | x2 = 0.6297 | x2 = 0.7257 | x2 = 0.8193 | x2 = 0.9107
298.15 K | 11.14 | 8.918 | 7.131 | 5.694 | 4.541 | 3.617 | 2.884 | 2.319 | 1.88
308.15 K | 6.522 | 5.57 | 4.738 | 4.049 | 3.417 | 2.851 | 2.364 | 1.922 | 1.517
318.15 K | 5.117 | 4.435 | 3.835 | 3.299 | 2.808 | 2.362 | 1.987 | 1.643 | 1.256

Cc1cccc(C)c1 + CCCCCCCCCC
viscosity [mPa·s], 101 kPa
Conditions | x1 = 0.0494 | x1 = 0.1119 | x1 = 0.2059 | x1 = 0.2732 | x1 = 0.4032 | x1 = 0.4856 | x1 = 0.6058 | x1 = 0.7313 | x1 = 0.8131 | x1 = 0.9342
308.15 K | 0.7221 | 0.6889 | 0.6779 | 0.6545 | 0.6148 | 0.5958 | 0.5728 | 0.5498 | 0.5392 | 0.5253
313.15 K | 0.6818 | 0.6525 | 0.6364 | 0.6134 | 0.5805 | 0.5631 | 0.542 | 0.5191 | 0.5122 | 0.4972

Cc1cccc(C)c1 + CCCCCCCCCCCC
323.15 K, 100 kPa
Conditions | viscosity
x1 = 0.453 | 0.682 mPa·s and 0.683 mPa·s
x1 = 0.757 | 0.538 mPa·s and 0.539 mPa·s

Cc1cccc(C)c1 + CCCCCCCCCCO
viscosity [mPa·s], 101 kPa
Conditions | 298.15 K | 308.15 K
x1 = 0.0627 | 9.938 | 6.871
x1 = 0.1424 | 7.856 | 5.489
x1 = 0.2052 | 6.481 | 4.577
x1 = 0.2618 | 5.435 | 3.88
x1 = 0.3217 | 4.497 | 3.243
x1 = 0.3934 | 3.563 | 2.622
x1 = 0.4989 | 2.534 | 1.912
x1 = 0.5581 | 2.095 | 1.617
x1 = 0.6343 | 1.645 | 1.299
x1 = 0.7131 | 1.292 | 1.045
x1 = 0.7991 | 1.001 | 0.835
x1 = 0.8465 | 0.874 | 0.742
x1 = 0.8964 | 0.762 | 0.662
x1 = 0.9421 | 0.674 | 0.599

Cc1cccc(C)c1 + CCCCCCO
101 kPa
Conditions | viscosity [mPa·s]
303.15 K, x2 = 0.2002 | 0.683
313.15 K, x2 = 0.5 | 0.965
323.15 K, x2 = 0.4001 | 0.693

NCCCO + CCCCCCn1cc[n+](C)c1.F[B-](F)(F)F
101 kPa
Conditions | viscosity [mPa·s]
303.15 K, x2 = 0.3217 | 34.55
308.15 K, x2 = 0.4942 | 36.45

O=S1(=O)CCCC1 + CCCCCO
viscosity [mPa·s], 101 kPa
Conditions | x1 = 0.1119 | x1 = 0.2324 | x1 = 0.3323 | x1 = 0.4328 | x1 = 0.5236 | x1 = 0.6267 | x1 = 0.7208 | x1 = 0.8145 | x1 = 0.9043
303.15 K | 2.686 | 2.749 | 2.951 | 3.218 | 3.489 | 3.956 | 4.594 | 5.618 | 7.273
308.15 K | 2.366 | 2.416 | 2.578 | 2.807 | 3.082 | 3.491 | 4.077 | 4.986 | 6.441
313.15 K | 2.096 | 2.14 | 2.278 | 2.479 | 2.729 | 3.111 | 3.644 | 4.454 | 5.735

Cc1ccc(O)cc1 + CCCCN(CCCC)CCCC
298.16 K, 101 kPa
Conditions | viscosity [mPa·s]
x1 = 0.5103 | 5.579
x1 = 0.5404 | 5.375
x1 = 0.5979 | 9.34
x1 = 0.6392 | 17.64
x1 = 0.6996 | 33.29
x1 = 0.7333 | 51.5
x1 = 0.7543 | 67.62
x1 = 0.7729 | 84.91
x1 = 0.7927 | 101.9
x1 = 0.8108 | 118
x1 = 0.8352 | 127.1
x1 = 0.8549 | 122.8
x1 = 0.8734 | 104.8
x1 = 0.893 | 82.05
x1 = 0.9161 | 61.96
x1 = 0.9375 | 42.17
x1 = 0.9497 | 33.73
x2 = 0.005161 | 13.13

Cc1ccc(O)cc1 + CCCCNCCCC
298.16 K, 101 kPa
Conditions | viscosity [mPa·s]
x1 = 0.4487 | 3.678
x1 = 0.4877 | 5.428
x1 = 0.5489 | 7.609
x1 = 0.5951 | 11.91
x1 = 0.6192 | 13.62
x1 = 0.6457 | 16.41
x1 = 0.6924 | 28.49
x1 = 0.7098 | 33.96
x1 = 0.7329 | 43.07
x1 = 0.7632 | 61.06
x1 = 0.7959 | 79.23
x1 = 0.833 | 89.65
x1 = 0.8754 | 78.76
x1 = 0.902 | 60.59
x1 = 0.9421 | 33.43
x2 = 0.001967 | 12.1
x2 = 0.003431 | 17.88
x2 = 0.015 | 18.21

C1CC[NH2+]C1.CCCCCCCC(=O)[O-] + CCCCO
viscosity [mPa·s], 101 kPa
Conditions | x1 = 0.1198 | x1 = 0.2524 | x1 = 0.3299 | x1 = 0.4745 | x1 = 0.6187 | x1 = 0.7174 | x1 = 0.7912 | x1 = 0.9269
293.15 K | 5.39 | 10.82 | 13.21 | 22.51 | 34.14 | 44.35 | 51.93 | 65.75
298.15 K | 6.9 | 10.82 | – | 21.6 | 30.39 | 38.92 | 44.89 | 57.02
303.15 K | 4.75 | 8.64 | 11.15 | 17 | 24.8 | 31.23 | 35.44 | 45.4
308.15 K | 4.32 | 7.79 | 10.03 | 14.95 | 21.43 | 26.63 | 29.97 | 38.73
313.15 K | 3.6 | 6.6 | 8.5 | 13 | 17.8 | 21.5 | 25.3 | 31.7
